Data from publication PMC3574212 (Journal of medicinal chemistry, 2013).
“Also recorded” adds a separate entry of the source. Where a name gives a salt, the structure may show the parent alone.

Assays:
EPAC1 = target: T1, EPAC1 (Homo sapiens, UniProt O95398); assay: cAMP-mediated EPAC1 GEF activity; format: biochemical; conditions: 25 µM compound in the presence of 25 µM cAMP
T1 sequence (O95398 1-923): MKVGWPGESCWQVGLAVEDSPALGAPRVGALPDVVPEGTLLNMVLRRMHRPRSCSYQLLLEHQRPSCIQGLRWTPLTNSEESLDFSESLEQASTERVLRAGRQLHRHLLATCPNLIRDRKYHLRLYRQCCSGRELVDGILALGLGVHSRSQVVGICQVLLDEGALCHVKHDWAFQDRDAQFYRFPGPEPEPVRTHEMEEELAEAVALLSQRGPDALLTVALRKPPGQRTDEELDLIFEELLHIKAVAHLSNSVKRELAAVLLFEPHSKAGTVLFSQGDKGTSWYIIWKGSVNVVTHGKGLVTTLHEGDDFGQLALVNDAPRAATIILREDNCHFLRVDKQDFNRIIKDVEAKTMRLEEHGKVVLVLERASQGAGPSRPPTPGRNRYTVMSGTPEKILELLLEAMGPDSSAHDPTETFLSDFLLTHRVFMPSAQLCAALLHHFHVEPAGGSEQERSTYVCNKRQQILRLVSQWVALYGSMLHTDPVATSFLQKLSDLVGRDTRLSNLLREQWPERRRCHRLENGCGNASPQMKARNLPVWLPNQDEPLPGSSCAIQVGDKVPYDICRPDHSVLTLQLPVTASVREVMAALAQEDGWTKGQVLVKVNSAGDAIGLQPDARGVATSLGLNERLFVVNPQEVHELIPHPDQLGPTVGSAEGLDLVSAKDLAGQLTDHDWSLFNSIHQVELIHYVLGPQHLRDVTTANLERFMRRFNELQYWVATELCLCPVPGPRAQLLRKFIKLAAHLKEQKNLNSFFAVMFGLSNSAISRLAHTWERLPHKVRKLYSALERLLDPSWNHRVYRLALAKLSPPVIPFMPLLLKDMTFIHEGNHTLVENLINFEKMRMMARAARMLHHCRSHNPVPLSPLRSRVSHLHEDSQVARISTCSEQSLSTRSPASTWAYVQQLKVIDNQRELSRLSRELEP

type II PKA holoenzyme = assay: Counter screening assay, type II PKA holoenzyme kinase activity; format: biochemical; conditions: 25 µM compound, 0.1 mM cAMP
type I PKA holoenzyme = assay: Counter screening assay, type I PKA holoenzyme kinase activity; format: biochemical; conditions: 25 µM compound, 0.1 mM cAMP
EPAC2 [1] = target: T2, EPAC2 (Mus musculus, UniProt Q9EQZ6); assay: cAMP-mediated EPAC2 GEF activity; format: biochemical; conditions: 25 µM compound in the presence of 25 µM cAMP
T2 sequence (Q9EQZ6 1-1011): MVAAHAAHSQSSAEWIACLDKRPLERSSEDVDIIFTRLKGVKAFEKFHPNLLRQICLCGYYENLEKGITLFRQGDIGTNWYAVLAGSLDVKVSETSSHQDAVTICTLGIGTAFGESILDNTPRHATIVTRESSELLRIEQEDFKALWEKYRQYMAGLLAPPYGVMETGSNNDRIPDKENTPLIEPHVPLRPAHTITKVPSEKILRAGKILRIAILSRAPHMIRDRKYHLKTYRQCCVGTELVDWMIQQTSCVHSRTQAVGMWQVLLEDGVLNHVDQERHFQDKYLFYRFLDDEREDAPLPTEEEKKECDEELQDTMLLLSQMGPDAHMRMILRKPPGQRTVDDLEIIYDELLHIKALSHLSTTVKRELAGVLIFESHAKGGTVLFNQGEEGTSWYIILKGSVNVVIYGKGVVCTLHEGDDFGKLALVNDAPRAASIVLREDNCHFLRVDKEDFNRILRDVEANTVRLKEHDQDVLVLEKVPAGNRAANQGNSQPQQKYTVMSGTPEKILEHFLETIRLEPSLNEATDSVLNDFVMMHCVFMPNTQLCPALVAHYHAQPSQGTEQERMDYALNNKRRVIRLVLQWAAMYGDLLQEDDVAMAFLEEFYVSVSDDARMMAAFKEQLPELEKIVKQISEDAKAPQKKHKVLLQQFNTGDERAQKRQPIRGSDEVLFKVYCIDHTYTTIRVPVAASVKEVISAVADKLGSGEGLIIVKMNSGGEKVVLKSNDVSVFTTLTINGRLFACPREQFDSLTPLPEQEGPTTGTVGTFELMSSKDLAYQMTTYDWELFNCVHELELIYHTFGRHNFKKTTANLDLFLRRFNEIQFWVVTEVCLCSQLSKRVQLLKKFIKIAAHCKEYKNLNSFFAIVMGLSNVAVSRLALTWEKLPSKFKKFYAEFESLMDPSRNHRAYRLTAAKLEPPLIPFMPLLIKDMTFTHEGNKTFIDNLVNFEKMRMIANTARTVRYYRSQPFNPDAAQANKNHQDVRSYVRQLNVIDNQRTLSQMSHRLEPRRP

EPAC2 [2] = target: T2, EPAC2; assay: 8-NBD-cAMP competition binding assay; conditions: for Relative Potency (RA): RA = IC50, cAMP/ IC50, compound; for EPAC2 inhibitory activity (in words): 8-NBD-cAMP competition

Relative Potency (RA) (EPAC2 [2]) | IC50 (EPAC2 [2]) [µM] | Structure (SMILES) | further results
10 |  | Cc1cc(C)c(S(=O)(=O)c2ccc(I)cc2)c(C)c1 [Compound 8a, 2-(4-Iodobenzenesulfonyl)-1,3,5-trimethylbenzene] | 
21.1 |  | COc1ccc(S(=O)(=O)c2c(C)cc(C)cc2C)cc1 [Compound 8b, 2-(4-Methoxybenzenesulfonyl)-1,3,5-trimethylbenzene] | 
<0.13 | > 300 | Cc1cc(C)c(S(=O)(=O)c2ccc(-c3ccc(F)nc3)cc2)c(C)c1 [Compound 9, 2-Fluoro-5-[4-(2,4,6-trimethylbenzenesulfonyl)phenyl]pyridine] | 
3.0 |  | Cc1cc(C)c(S(=O)(=O)c2ccc(O)cc2)c(C)c1 [Compound 10, 4-(2,4,6-Trimethylbenzenesulfonyl)phenol] | 
<0.13 | > 300 | Cc1cc(C)c(S(=O)(=O)c2ccc(OCCN)cc2)c(C)c1 [Compound 11d, 2-[4-(2,4,6-Trimethylbenzenesulfonyl)phenoxy]ethylamine] | 
10 |  | CCc1cccn1S(=O)(=O)c1ccc(C)cc1 [Compound 20b, 2-Ethyl-1-(toluene-4-sulfonyl)-1H-pyrrole] | 
5 |  | CCc1cccn1S(=O)(=O)c1ccc(OC)cc1 [Compound 20c, 2-Ethyl-1-(4-methoxybenzenesulfonyl)-1H-pyrrole] | 
<0.13 | > 300 | CCc1cccn1S(=O)(=O)c1ccc(C(F)(F)F)cc1 [Compound 20e, 2-Ethyl-1-(4-trifluoromethyl-benzenesulfonyl)-1H-pyrrole] | EPAC2 inhibitory activity (in words) (EPAC2 [2]): dramatic loss of EPAC inhibitory activity
7.5 |  | CCc1cccn1S(=O)(=O)c1ccccc1C [Compound 20f, 2-Ethyl-1-(toluene-2-sulfonyl)-1H-pyrrole] | 
8.5 |  | CCc1cccn1S(=O)(=O)c1cc(C)cc(C)c1 [Compound 20g, 1-(3,5-Dimethylbenzenesulfonyl)-2-ethyl-1H-pyrrole] | 
30.8 |  | CCc1cccn1S(=O)(=O)c1ccc(C)cc1C [Compound 20h, 1-(2,4-Dimethylbenzenesulfonyl)-2-ethyl-1H-pyrrole] | 
33.3 |  | Cc1cc(C)c(S(=O)(=O)n2ccc3ccccc32)c(C)c1 [Compound 22a, 1-(2,4,6-Trimethylbenzenesulfonyl)-1H-indole] | EPAC2 inhibitory activity (in words) (EPAC2 [2]): almost retained activity
10.5 |  | Cc1cc(C)c(S(=O)(=O)n2ccc3ncccc32)c(C)c1 [Compound 24a, 1-(2,4,6-Trimethylbenzenesulfonyl)-1H-pyrrolo[3,2-b]pyridine] | 
4.5 |  | Cc1cc(C)c(S(=O)(=O)n2ccc3cnccc32)c(C)c1 [Compound 24b, 1-(2,4,6-Trimethylbenzenesulfonyl)-1H-pyrrolo[3,2-c]pyridine] | 
3.2 |  | Cc1cc(C)c(S(=O)(=O)n2ccc3ccncc32)c(C)c1 [Compound 24c, 1-(2,4,6-Trimethylbenzenesulfonyl)-1H-pyrrolo[2,3-c]pyridine] | 
16.7 |  | Cc1cc(C)c(S(=O)(=O)n2ccc3cccnc32)c(C)c1 [Compound 24d, 1-(2,4,6-Trimethylbenzenesulfonyl)-1H-pyrrolo[2,3-b]pyridine] | EPAC2 inhibitory activity (in words) (EPAC2 [2]): almost retained activity

The remaining lines, values behind:

Structure (SMILES) | Relative Potency (RA) (EPAC2 [2]) | IC50 (EPAC2 [2]) [µM] | further results
Cc1ccc(S(=O)(=O)c2c(C)cc(C)cc2C)cc1 [Compound 1] |  |  | Inhibition of EPAC1-mediated Rap1-GDP exchange activity (EPAC1): no inhibition; also recorded: not to inhibit; Effect on cAMP-induced type II PKA holoenzyme activation (type II PKA holoenzyme): not to significantly alter; Effect on cAMP-induced type I PKA holoenzyme activation (type I PKA holoenzyme): not to significantly alter; Inhibition of EPAC2 GEF activity (EPAC2 [1]): inhibit EPAC2 GEF activity to basal levels
Cc1cc(C)c(S(=O)(=O)c2cc(C)c(C)cc2C)c(C)c1 [Compound 5a, 1,3,5-Trimethyl-2-(2,4,5-trimethylbenzenesulfonyl)benzene] | 57.1 |  | 
CCCCCc1ccc(S(=O)(=O)c2c(C)cc(C)cc2C)cc1 [Compound 5b, 1,3,5-Trimethyl-2-(4-pentylbenzenesulfonyl)benzene] | <0.13 | > 300 | 
Cc1cc(C)c(S(=O)(=O)c2ccc(C3CCCCC3)cc2)c(C)c1 [Compound 5c, 2-(4-Cyclohexylbenzenesulfonyl)-1,3,5-trimethylbenzene] | <0.13 | > 300 | 
Cc1cc(C)c(S(=O)(=O)c2ccc(OC3CCCCC3)cc2)c(C)c1 [Compound 11a, 2-(4-Cyclohexyloxybenzenesulfonyl)-1,3,5-trimethylbenzene] | <0.13 | > 300 | 
Cc1cc(C)c(S(=O)(=O)c2ccc(OC3CCN(C(=O)OC(C)(C)C)CC3)cc2)c(C)c1 [Compound 11b, 4-[4-(2,4,6-Trimethylbenzenesulfonyl)phenoxy]-piperidine-1-carboxylic acid tert-butyl ester] | <0.13 | > 300 | 
Cc1cc(C)c(S(=O)(=O)c2ccc(OC3CCNCC3)cc2)c(C)c1 [Compound 11c, 4-[4-(2,4,6-Trimethylbenzenesulfonyl)phenoxy]piperidine] | <0.13 | > 300 | 
Cc1ccc(Nc2c(C)cc(C)cc2C)cc1 [Compound 14a, p-Tolyl-(2,4,6-trimethylphenyl)amine] | 10.5 |  | 
Cc1cc(C)c(Nc2cc(Cl)cc(Cl)c2)c(C)c1 [Compound 14b, (3,5-Dichlorophenyl)-(2,4,6-trimethylphenyl)amine] | 44.4 |  | 
Cc1cc(C)c(Nc2nc(C)c(C)s2)c(C)c1 [Compound 17, (4,5-Dimethylthiazol-2-yl)-(2,4,6-trimethylphenyl)amine] | <0.13 | > 300 | EPAC2 inhibitory activity (in words) (EPAC2 [2]): no activity
COC(=O)c1ccc2c(ccn2S(=O)(=O)c2c(C)cc(C)cc2C)c1 [Compound 22b, 1-(2,4,6-Trimethylbenzenesulfonyl)-1H-indole-5-carboxylic acid methyl ester] | <0.13 | > 300 | EPAC2 inhibitory activity (in words) (EPAC2 [2]): dramatic loss of activity
Cc1cc(C)c(S(=O)(=O)n2ccc3cc(C(=O)O)ccc32)c(C)c1 [Compound 22c, 1-(2,4,6-Trimethylbenzenesulfonyl)-1H-indole-5-carboxylic acid] | 3.7 |  | EPAC2 inhibitory activity (in words) (EPAC2 [2]): less active with a moderate potency
O=S(=O)(NCCNC/C=C/c1ccc(Br)cc1)c1cccc2cnccc12 [Compound H89, N-[2-[[3-(4-bromophenyl)-2-propenyl]amino]ethyl]-5-isoquinolinesulfonamide dihydrochloride, reference compound] |  |  | Effect on cAMP-induced type II PKA holoenzyme activation (type II PKA holoenzyme): blocked the type I or II PKA activities completely; Effect on cAMP-induced type I PKA holoenzyme activation (type I PKA holoenzyme): blocked the type I or II PKA activities completely
